Measurements taken from patent US7902187B2, “6-substituted 2-(benzimidazolyl)purine and purinone derivatives for immunosuppression” (Wyeth LLC, priority 2006, dated 2011).
pIC50: −log10 of the molar value.

Molecular target: T1, Jak3 (Homo sapiens, UniProt P52333)
T1 construct: A fragment encoding the catalytic domain of Jak3 (508aa to 1124aa) was ligated with GST at 5′ end; made in house; host or cells: Sf9 insect cells (baculovirus, pFastBac 1)
T1 sequence (P52333 508-1124): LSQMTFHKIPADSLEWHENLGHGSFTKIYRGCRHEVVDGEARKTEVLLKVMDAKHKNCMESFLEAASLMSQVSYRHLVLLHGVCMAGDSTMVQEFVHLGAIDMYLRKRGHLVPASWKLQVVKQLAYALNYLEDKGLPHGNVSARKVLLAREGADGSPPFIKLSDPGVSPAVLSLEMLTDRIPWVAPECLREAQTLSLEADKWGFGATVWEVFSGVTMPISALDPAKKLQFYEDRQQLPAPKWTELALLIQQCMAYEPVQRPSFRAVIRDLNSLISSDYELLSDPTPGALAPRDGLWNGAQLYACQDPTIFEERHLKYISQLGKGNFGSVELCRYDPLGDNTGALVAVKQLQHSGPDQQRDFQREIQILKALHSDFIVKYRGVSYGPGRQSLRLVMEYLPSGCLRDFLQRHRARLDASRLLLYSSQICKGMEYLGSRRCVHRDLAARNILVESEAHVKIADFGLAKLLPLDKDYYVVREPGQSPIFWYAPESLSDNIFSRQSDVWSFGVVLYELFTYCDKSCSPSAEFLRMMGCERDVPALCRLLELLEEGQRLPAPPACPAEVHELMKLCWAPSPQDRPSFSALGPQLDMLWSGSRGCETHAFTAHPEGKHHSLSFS
Assay: Jak3 Kinase Assay (HTRF)
Assay type: biochemical
Settings: GST-Jak3 catalytic domain, 1 μM ATP, 60-min incubation; read-out: Jak3 Kinase, IC50 representation
Method: Human Jak3 cDNA was amplified by PCR. A fragment encoding the catalytic domain of Jak3 (508aa to 1124aa) was ligated with GST at 5′ end. This fused GST-Jak3 DNA fragment was cloned into the EcoRI site of the donor plasmid pFastBac 1 (Life Technologies #10359-016). The transformation, transposition, and transfection of insect cells (Sf9) were performed according to the manufacture's instructions. The cell lysate containing recombinant GST-Jak3 was used in the kinase assay. Anti-GST antibody (10 μg/ml, Sigma #G1417) was coated onto a 384-well plate at 4° C. overnight. Cell lysate containing GST-Jak3 (1:100 dilution) was added to the anti-GST coated plates, and GST-Jak3 was captured by immobilized anti-GST antibody. Testing compounds and substrate mix (50 mM HEPES, pH 7, 0.5 mM Na3VO4, 25 mM MgCl2, 1 mM DTT, 0.005% BSA, 1 μM ATP, and 4.5 μg/ml biotinyl poly-Glu,Ala,Tyr) were added to the plate to initiate the reaction. After a 60-min incubation, the reaction was stopped by 4 mM EDTA, and phosphorylation of biotinyl poly-Glu,Ala,Tyr was detected using 17 μg/ml Cy5-streptavidin (Amersham, #PA92005) and 2.7 μg/ml Europium-conjugated anti-phosphotyrosine antibody (PerkinElmer #AD0069) using homogeneous time-resolved fluorescence (HTRF) technology.

SMILES | pIC50
N#Cc1ccc2ncn(-c3nc(N4CC(F)(F)C4)c4[nH]c(=O)n([C@H]5CC[C@H](O)CC5)c4n3)c2c1 | > 7.00
N#Cc1ccc2ncn(-c3nc(N4CCNCC4)c4[nH]c(=O)n(C5CCOCC5)c4n3)c2c1 | > 7.00
N#Cc1ccc2ncn(-c3nc(N4CCC4)c4[nH]c(=O)n(C5CCOCC5)c4n3)c2c1 | > 7.00
N#Cc1ccc2ncn(-c3nc(NCCCN4CCCCC4)c4[nH]c(=O)n(C5CCOCC5)c4n3)c2c1 | > 7.00
Cn1c(=O)n([C@H]2CC[C@H](O)CC2)c2nc(-n3cnc4ccc(F)cc43)nc(N3CC[C@H](F)C3)c21 | > 7.00
CN1CCN(c2nc(-n3cnc4ccc(C#N)cc43)nc3c2[nH]c(=O)n3C2CCOCC2)CC1 | > 7.00
O=c1[nH]c2c(-c3cn[nH]c3)nc(-n3cnc4ccc(F)cc43)nc2n1C1CCOCC1 | > 7.00
Cc1nc2c(-c3ccncc3)nc(-n3cnc4ccc(Cl)cc43)nc2n1C1CCOCC1 | > 7.00
O=c1[nH]c2c(N3CCC3)nc(-n3cnc4ccc(F)cc43)nc2n1[C@@H]1CCOc2c(F)cccc21 | > 7.00
O=c1[nH]c2c(-c3ccncc3)nc(-n3cnc4ccc(Cl)cc43)nc2n1C1CCOCC1 | > 7.00
N#Cc1ccc2ncn(-c3nc(NCC4CC4)c4[nH]c(=O)n(C5CCOCC5)c4n3)c2c1 | > 7.00
CN1CCCN(c2nc(-n3cnc4ccc(F)cc43)nc3c2[nH]c(=O)n3C2CCOCC2)CC1 | > 7.00
N#Cc1ccc2ncn(-c3nc(NC4CCC4)c4[nH]c(=O)n(C5CCOCC5)c4n3)c2c1 | > 7.00
CC(C)(C)OC(=O)N1CC(CNc2nc(-n3cnc4ccc(F)cc43)nc3c2[nH]c(=O)n3C2CCOCC2)C1 | > 7.00
O=c1[nH]c2c(N3CCCCC3)nc(-n3cnc4ccc(F)cc43)nc2n1C1CCOCC1 | > 7.00
CN(C)C(=O)CNc1nc(-n2cnc3ccc(F)cc32)nc2c1[nH]c(=O)n2C1CCOCC1 | > 7.00
Cn1c(=O)n([C@H]2CC[C@H](O)CC2)c2nc(-n3cnc4ccc(F)cc43)nc(N3CCC(F)CC3)c21 | > 7.00
Cn1c(=O)n([C@H]2CC[C@H](O)CC2)c2nc(-n3cnc4ccc(C#N)cc43)nc(-c3ccncc3)c21 | > 7.00
O=c1[nH]c2c(N3CCC(F)CC3)nc(-n3cnc4ccc(F)cc43)nc2n1C1CCOCC1 | > 7.00
O=c1[nH]c2c(N3CCC(F)(F)CC3)nc(-n3cnc4ccc(F)cc43)nc2n1C1CCOCC1 | > 7.00
Cn1c(=O)n([C@H]2CC[C@H](O)CC2)c2nc(-n3cnc4ccc(Cl)cc43)nc(N3CCC(F)(F)CC3)c21 | > 7.00
COCCCCn1c(=O)[nH]c2c(N3CC(F)(F)C3)nc(-n3cnc4ccc(C#N)cc43)nc21 | > 7.00
COCCCNc1nc(-n2cnc3ccc(Cl)cc32)nc2c1[nH]c(=O)n2C1CCOCC1 | > 7.00
O=c1[nH]c2c(CO)nc(-n3cnc4ccc(F)cc43)nc2n1C1CCOc2ccccc21 (stereo not shown) | > 7.00

SMILES | pIC50
N#CCCCc1nc(-n2cnc3ccc(F)cc32)nc2c1[nH]c(=O)n2[C@@H]1CCOc2c(F)cccc21 | > 7.00
Cc1ncccc1Cn1c(=O)[nH]c2c(N3CC(F)(F)C3)nc(-n3cnc4ccc(C#N)cc43)nc21 | > 7.00
CC(C)(C)OC(=O)N1CC(Nc2nc(-n3cnc4ccc(F)cc43)nc3c2[nH]c(=O)n3C2CCOCC2)C1 | > 7.00
O=c1[nH]c2c(-c3ccncc3)nc(-n3cnc4ccc(F)cc43)nc2n1C1CCOCC1 | > 7.00
Cn1c(=O)n(C2CCOCC2)c2nc(-n3cnc4ccc(Cl)cc43)nc(N3CC(F)(F)C3)c21 | > 7.00
O=c1[nH]c2c(N3CCCC(F)(F)C3)nc(-n3cnc4ccc(F)cc43)nc2n1C1CCOCC1 | > 7.00
N#Cc1ccc2ncn(-c3nc(N4CC(F)(F)C4)c4[nH]c(=O)n(Cc5cccnc5)c4n3)c2c1 | > 7.00
O=c1[nH]c2c(N3CC(F)(F)C(F)(F)C3)nc(-n3cnc4ccc(F)cc43)nc2n1C1CCOCC1 | > 7.00
O=C(O)c1nc(-n2cnc3ccc(F)cc32)nc2c1[nH]c(=O)n2C1CCOc2ccccc21 (stereo not shown) | > 7.00
NC(=O)c1nc(-n2cnc3ccc(F)cc32)nc2c1[nH]c(=O)n2C1CCOc2ccccc21 (stereo not shown) | > 7.00
CNC(=O)c1nc(-n2cnc3ccc(F)cc32)nc2c1[nH]c(=O)n2C1CCOc2ccccc21 (stereo not shown) | > 7.00
Cn1c(=O)n([C@H]2CC[C@H](O)CC2)c2nc(-n3cnc4ccc(F)cc43)nc(N3CCCCC3)c21 | > 7.00
COCCCn1c(=O)[nH]c2c(N3CC(F)(F)C3)nc(-n3cnc4ccc(C#N)cc43)nc21 | > 7.00
COc1ccc(-c2nc(-n3cnc4ccc(F)cc43)nc3c2[nH]c(=O)n3C2CCOCC2)cn1 | > 7.00
CCc1noc(CNc2nc(-n3cnc4ccc(F)cc43)nc3c2[nH]c(=O)n3C2CCOCC2)n1 | > 7.00
CO[C@H]1CC[C@H](n2c(=O)[nH]c3c(N4CC(F)(F)C4)nc(-n4cnc5ccc(C#N)cc54)nc32)CC1 | > 7.00
O=c1[nH]c2c(-c3cccnc3)nc(-n3cnc4ccc(F)cc43)nc2n1C1CCOCC1 | > 7.00
O=c1[nH]c2c(N[C@@H]3CCC[C@@H]3O)nc(-n3cnc4ccc(F)cc43)nc2n1C1CCOCC1 | > 7.00
O=c1[nH]c2c(Oc3ccncc3)nc(-n3cnc4ccc(F)cc43)nc2n1C1CCOCC1 | > 7.00
N#CCNC(=O)c1nc(-n2cnc3ccc(F)cc32)nc2c1[nH]c(=O)n2C1CCOc2ccccc21 (stereo not shown) | > 7.00
N#Cc1ccc2ncn(-c3nc(N4CC(F)(F)C4)c4[nH]c(=O)n(CC5CCOC5)c4n3)c2c1 (stereo not shown) | > 7.00
O=c1[nH]c2c(NC3CCC3)nc(-n3cnc4ccc(F)cc43)nc2n1C1CCOCC1 | > 7.00
O=c1[nH]c2c(Cl)nc(-n3cnc4ccc(F)cc43)nc2n1[C@@H]1CCOc2c(F)cccc21 | > 7.00
O=C(c1nc(-n2cnc3ccc(F)cc32)nc2c1[nH]c(=O)n2C1CCOc2ccccc21)N1CCCCC1 (stereo not shown) | > 7.00

SMILES | pIC50
O=c1[nH]c2c(-c3ccc(F)nc3)nc(-n3cnc4ccc(F)cc43)nc2n1C1CCOCC1 | > 7.00
Cn1c(=O)n(C2CCOCC2)c2nc(-n3cnc4ccc(Cl)cc43)nc(NCC(F)(F)CCl)c21 | > 7.00
O=c1[nH]c2c(Oc3cccnc3)nc(-n3cnc4ccc(F)cc43)nc2n1C1CCOCC1 | > 7.00
N#Cc1ccc2ncn(-c3nc(NC4CCCC4)c4[nH]c(=O)n(C5CCOCC5)c4n3)c2c1 | > 7.00
Cn1c(=O)n([C@H]2CC[C@H](O)CC2)c2nc(-n3cnc4ccc(F)cc43)nc(N3CCC(F)(F)CC3)c21 | > 7.00
N#CCNC(=O)c1nc(-n2cnc3ccc(F)cc32)nc2c1[nH]c(=O)n2C1CCOCC1 | > 7.00
O=c1[nH]c2c(OC3CCC3)nc(-n3cnc4ccc(F)cc43)nc2n1C1CCOCC1 | > 7.00
COc1ccc(-c2nc(-n3cnc4ccc(F)cc43)nc3c2[nH]c(=O)n3C2CCOCC2)cc1 | > 7.00
N#Cc1ccc(-c2nc(-n3cnc4ccc(F)cc43)nc3c2[nH]c(=O)n3C2CCOCC2)cc1 | > 7.00
O=c1[nH]c2c(-c3cncnc3)nc(-n3cnc4ccc(F)cc43)nc2n1C1CCOCC1 | > 7.00
O=c1[nH]c2c(-c3ccccc3)nc(-n3cnc4ccc(F)cc43)nc2n1C1CCOCC1 | > 7.00
CNC(=O)c1nc(-n2cnc3ccc(F)cc32)nc2c1[nH]c(=O)n2C1CCOCC1 | > 7.00
CC(C)(C)NS(=O)(=O)c1cccc(-c2nc(-n3cnc4ccc(F)cc43)nc3c2[nH]c(=O)n3C2CCOCC2)c1 | > 7.00
O=c1[nH]c2c(-c3cccc4[nH]ccc34)nc(-n3cnc4ccc(F)cc43)nc2n1C1CCOCC1 | > 7.00
O=c1[nH]c2c(-c3ccncc3)nc(-n3cnc4ccc(OC(F)(F)F)cc43)nc2n1C1CCOCC1 | 6.00 to 7.00
O=C(c1nc(-n2cnc3ccc(F)cc32)nc2c1[nH]c(=O)n2C1CCOCC1)N1CCCCC1 | 6.00 to 7.00
O=c1[nH]c2c(-c3ccc(F)cc3)nc(-n3cnc4ccc(F)cc43)nc2n1C1CCOCC1 | 6.00 to 7.00
O=c1[nH]c2c(CO)nc(-n3cnc4ccc(F)cc43)nc2n1C1CCOCC1 | 6.00 to 7.00
CCOC(=O)c1nc(-n2cnc3ccc(F)cc32)nc2c1[nH]c(=O)n2C1CCOc2ccccc21 (stereo not shown) | 6.00 to 7.00
O=c1[nH]c2c(OCC3CC3)nc(-n3cnc4ccc(F)cc43)nc2n1C1CCOCC1 | 6.00 to 7.00
CCOC(=O)c1nc(-n2cnc3ccc(F)cc32)nc2c1[nH]c(=O)n2C1CCOCC1 | 6.00 to 7.00
CCOC(=O)CCc1nc(-n2cnc3ccc(F)cc32)nc2c1[nH]c(=O)n2[C@@H]1CCOc2c(F)cccc21 | 6.00 to 7.00
